# In patent US7579006B2, “Method of treating immune pathologies with low dose estrogen” (Oregon Health and Science University, priority 2000, dated 2009):
# Experiments:
# B10.PL mice = test: EAE induced with MBP Ac1-11 in B10.PL mice; assay type: in vivo; settings: for inhibition of EAE: B10.PL females
# [1] = test system: draining lymph node (DLN) cells; test: Flow cytometry of activation and adhesion markers on DLN cells of SJL mice with EAE; assay type: in vivo; settings: DLN cells at peak of EAE
# Procedure: Immunofluorescent staining for flow cytometry. Draining lymph node (DLN) cells were removed during the peak of clinical symptoms and analyzed for the expression of cell surface proteins by fluorescent staining ex vivo. The following fluorochrome conjugated antibodies obtained from Pharmingen Inc. (San Diego, Calif.) were used for the direct staining of DLN cells: anti-CD4, anti-CD25, anti-CD69, anti-CD95L, anti-CD44, anti-CD62L, anti-CD49d. Two-color immunofluorescent analysis was performed on a FACScan instrument (Becton Dickinson, Mountain View, Calif.) using Cellquest software. For each experiment the cells were stained with isotype control antibodies to establish background staining, and to set the quadrants prior to calculating the percent positive staining cells. […] Alterations in the expression of adhesion or activation markers on T cells are often indicative of functional changes in the cell. Monoclonal antibodies specific for a number of these markers were used to assess whether estrogen therapy altered their expression. Draining lymph node (DLN) cells were recovered from mice during the peak of clinical EAE, incubated with the indicated fluorochrome conjugated monoclonal antibodies, and surface expression measured by fluorescent activated cell analyzer.
compound,measurement,setting,value
C[C@]12CC[C@@H]3c4ccc(O)cc4CC[C@H]3[C@@H]1CC[C@@H]2O [17β-estradiol],CDT,B10.PL mice; 0.18 mg/pellet (diestrus),5.8 ± 2.9
same,Incidence,B10.PL mice; 0.18 mg/pellet (diestrus),3/6
same,Incidence (%),B10.PL mice; 0.18 mg/pellet (diestrus),50%
same,Onset,B10.PL mice; 0.18 mg/pellet (diestrus),25.7 ± 1.2 days
same,Peak (disease score),B10.PL mice; 0.18 mg/pellet (diestrus),1.7 ± 0.92
same,CDT,B10.PL mice; 0.36 mg/pellet (estrus),13.5 ± 6.2
same,Incidence,B10.PL mice; 0.36 mg/pellet (estrus),15/26
same,Incidence (%),B10.PL mice; 0.36 mg/pellet (estrus),58%
same,Onset,B10.PL mice; 0.36 mg/pellet (estrus),26.5 ± 1.3 days
same,Peak (disease score),B10.PL mice; 0.36 mg/pellet (estrus),2.61 ± 0.60
same,CDT,B10.PL mice; 2.50 mg/pellet (pregnancy),0 ± 0
same,Incidence,B10.PL mice; 2.50 mg/pellet (pregnancy),0/15
same,Incidence (%),B10.PL mice; 2.50 mg/pellet (pregnancy),0%
same,Onset,B10.PL mice; 2.50 mg/pellet (pregnancy),0 ± 0 days
same,Peak (disease score),B10.PL mice; 2.50 mg/pellet (pregnancy),0 ± 0
same,CDT,B10.PL mice; 15.0 mg/pellet (high),1.4 ± 3.8
same,Incidence,B10.PL mice; 15.0 mg/pellet (high),2/8
same,Incidence (%),B10.PL mice; 15.0 mg/pellet (high),25%
same,Onset,B10.PL mice; 15.0 mg/pellet (high),29 ± 1.4 days
same,Peak (disease score),B10.PL mice; 15.0 mg/pellet (high),2.0 ± 1.0
same,inhibition of EAE,B10.PL mice; 2.5 mg pellets,essentially complete inhibition of EAE
same,inhibition of EAE,B10.PL mice; 15 mg pellets,essentially complete inhibition of EAE
same,inhibition of EAE,B10.PL mice; estrus (0.36 mg pellets) to diestrus levels (0.10 mg pellets),substantial inhibition
same,"CD4, % of Total",[1]; 0.36 mg pellet,49%
same,"CD25, % of CD4+ T cells",[1]; 0.36 mg pellet,5.9%
same,"CD44, % of CD4+ T cells",[1]; 0.36 mg pellet,43%
same,"CD62L, % of CD4+ T cells",[1]; 0.36 mg pellet,7.0%
same,"CD69, % of CD4+ T cells",[1]; 0.36 mg pellet,6.6%
same,"CD49d, % of CD4+ T cells",[1]; 0.36 mg pellet,45%
same,"FASL, % of CD4+ T cells",[1]; 0.36 mg pellet,2.7%
same,"CD4, % of Total",[1]; 2.5 mg pellet,49%
same,"CD25, % of CD4+ T cells",[1]; 2.5 mg pellet,6.3%
same,"CD44, % of CD4+ T cells",[1]; 2.5 mg pellet,41%
same,"CD62L, % of CD4+ T cells",[1]; 2.5 mg pellet,6.7%
same,"CD69, % of CD4+ T cells",[1]; 2.5 mg pellet,6.5%
same,"CD49d, % of CD4+ T cells",[1]; 2.5 mg pellet,43%
same,"FASL, % of CD4+ T cells",[1]; 2.5 mg pellet,4.2%
